For assay [1], the target named is CDK4 (Homo sapiens, UniProt P11802). The assay can be described thus: CDK4 biochemical assay (33P-ATP filter-binding kinase assay). As to the method: (§1) Cyclin Dl was added to freshly prepared reaction buffer [20 mM Hepes (pH 7.5), 10 mM MgCl2, 1 mM EGTA, 0.02% Brij 35, 0.02 mg/mL BSA, 0.1 mM Na3VO4, 2 mM DTT, 1% DMSO]. CDK4 or CDK6 was delivered to the substrate solution and gently mixed. […] The compounds, diluted in DMSO, were added into the kinase reaction mixture by Acoustic technology (Echo550; nanoliter range) and incubated for 20 minutes at room temperature. 33P-ATP (1 μM) was added to the reaction mixture to initiate the reaction. The kinase reaction was incubated for 2 hours at room temperature. The reactions were spotted onto P81 ion exchange paper and the kinase activity detected by filter-binding method. Curves were fitted to a nonlinear regression curve using a four parameter logistic equation (GraphPad Prism).
Chain of CDK4 (P11802 whole entry): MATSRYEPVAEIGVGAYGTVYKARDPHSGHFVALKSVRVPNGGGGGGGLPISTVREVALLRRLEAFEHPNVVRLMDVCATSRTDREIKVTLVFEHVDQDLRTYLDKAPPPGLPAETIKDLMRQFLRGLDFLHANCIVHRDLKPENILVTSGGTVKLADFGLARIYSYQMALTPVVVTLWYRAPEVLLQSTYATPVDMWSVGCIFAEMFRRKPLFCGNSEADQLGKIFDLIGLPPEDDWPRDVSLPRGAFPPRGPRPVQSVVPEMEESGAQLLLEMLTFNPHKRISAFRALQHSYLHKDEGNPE
Chain of CDK4 (P24385 whole entry partner): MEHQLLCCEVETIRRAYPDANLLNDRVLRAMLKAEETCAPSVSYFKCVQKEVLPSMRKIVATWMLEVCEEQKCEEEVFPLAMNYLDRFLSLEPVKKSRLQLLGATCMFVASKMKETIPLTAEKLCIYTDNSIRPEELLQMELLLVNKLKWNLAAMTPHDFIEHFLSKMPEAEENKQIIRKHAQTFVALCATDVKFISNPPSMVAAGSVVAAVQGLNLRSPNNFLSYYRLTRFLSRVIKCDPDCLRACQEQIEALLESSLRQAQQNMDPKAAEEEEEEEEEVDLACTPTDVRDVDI

Assay [2] has as its system MCF7 human tumor cells. The assay can be described thus: MCF7 cell assay (Cell Titer-Glo, inhibition of cell growth). The conditions noted are these: 72 hours of culture. The format is cell-based. As to the method: The MCF7 human tumor cells were seeded in a clear polystyrene 96-well microculture plate (Corning® Costar® 96-well flat bottom plate, Cat. #3997) in a total volume of 90 μL/well. After 24 hours of incubation in a humidified incubator at 37° C. with 5% CO2 and 95% air, 10 μL of 10×, serially diluted 1 in growth medium was added to each well in duplicate (10 point dose response). After 72 hours of culture in a humidified incubator at 37° C., in an atmosphere of 5% CO2 and 95% air, the plated cells and Cell Titer-Glo® (Promega G7571) reagents were brought to room temperature to equilibrate for 30 minutes. 100 μL of Cell Titer-Glo® reagent was added to each well. The plate was shaken for two minutes and then left to equilibrate for ten minutes. The medium/Cell Titer Glo® reagent was transferred to a white polystyrene 96-well microculture plate (Corning® Costar® 96-well flat bottom plate, Cat. #3917) before reading luminescence on the Tecan GENios microplate reader. Percent inhibition of cell growth was calculated relative to untreated control wells. All tests were performed in duplicate at each concentration level. The IC50 value for the test agents was estimated using Prism 6.05 by curve-fitting the data using the following four parameter-logistic equation: […]

The target in assay [3] is CDK6 (Homo sapiens, UniProt Q00534). The assay can be described thus: CDK6 biochemical assay (33P-ATP filter-binding kinase assay). As to the method:
as §1

The structures appear in SMILES notation. Where two headings read alike, the source gives them in different places.

As usually defined, the IC50 is the midpoint of a concentration-inhibition curve.

Chain of CDK6 (Q00534 whole entry): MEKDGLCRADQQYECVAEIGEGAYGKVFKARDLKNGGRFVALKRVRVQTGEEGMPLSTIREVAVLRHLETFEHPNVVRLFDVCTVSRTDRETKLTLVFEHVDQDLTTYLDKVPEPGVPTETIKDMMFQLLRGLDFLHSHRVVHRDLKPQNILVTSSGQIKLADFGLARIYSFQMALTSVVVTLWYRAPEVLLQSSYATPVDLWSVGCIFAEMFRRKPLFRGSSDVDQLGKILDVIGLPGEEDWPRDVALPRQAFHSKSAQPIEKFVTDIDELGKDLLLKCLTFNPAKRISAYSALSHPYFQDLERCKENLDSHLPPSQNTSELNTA
Chain of CDK6 (P24385 whole entry partner): as the sequence (P24385 whole entry partner) above

Regarding `CCN1CCN(Cc2ccc(Nc3ncc(F)c(-c4ccc5nn(C)c(C(C)C)c5c4)n3)nc2)CC1` [Compound 1, N-(5-((4-ethylpiperazin-1-yl)methyl)pyridin-2-yl)-5-fluoro-4-(3-isopropyl-2-methyl-2H-indazol-5-yl)pyrimidin-2-amine], the IC50 was less than 1 nM in assay [1] (Cyclin D1, 1 μM 33P-ATP, 2 hours at room temperature, read-out: IC50 in CDK4 assay); less than 2000 nM in assay [2]; less than 1 nM in assay [3] (Cyclin D1, 1 μM 33P-ATP, 2 hours at room temperature, read-out: IC50 in CDK6 assay).
For `CC(=O)c1c(C)c2nc(Nc3ccc(N4CCNCC4)cn3)ncc2n(C2CCCC2)c1=O` [Compound 34], the half-maximal inhibitory concentration (IC50) in assay [1] (assay conditions described herein, read-out: IC50 CDK4 biochemical assay) was less than 1 nM; in assay [2] it was 10000 nM; in assay [3] (assay conditions described herein, read-out: IC50 CDK6 biochemical assay), less than 2 nM.
As for `CCN1CCN(Cc2ccc(Nc3ncc(F)c(-c4cc(F)c5nc(C)n(C(C)C)c5c4)n3)nc2)CC1` [Compound 33], the IC50 in assay [2] is less than 2000 nM.
On the same count and under the same terms, under `CN(C)C(=O)c1cc2cnc(Nc3ccc(N4CCNCC4)cn3)nc2n1C1CCCC1` [Compound 32] stands 10000 nM.

The values are drawn from patent US9878994B2, “2-H-indazole derivatives as cyclin-dependent kinase (CDK) inhibitors and therapeutic uses thereof” (Beta Pharma, Inc., priority 2014, dated 2018).
